Results reported in ChEMBL document CHEMBL1629634, “Postantibiotic effect of tigecycline against 14 gram-positive organisms” (Antimicrob Agents Chemother, 2009).
≈ marks a conversion by molar mass, not a printed value.

How the values were obtained:
Assay type in all cases: functional
Streptococcus pneumoniae [1] = assay: Antibacterial activity against penicillin-intermediate Streptococcus pneumoniae by macrodilution method
Enterococcus faecalis [2] = assay: Antibacterial activity against vancomycin-resistant Enterococcus faecalis assessed as post-antibiotic sub-MIC effect at 0.2 times MIC concentration pretreated with 10 times MIC concentration for 1 hr followed by 1:1000 dilution by viable plate count method
Haemophilus influenzae = assay: Antibacterial activity against amoxicillin, clavulanate-resistant Haemophilus influenzae expressing beta-lactamase assessed as post-antibiotic sub-MIC effect at 0.2 times MIC concentration pretreated with 6 times MIC concentration for 1 hr followed by 1:1000 dilution by viable plate count method
Escherichia coli [3] = assay: Antibacterial activity against Escherichia coli assessed as post-antibiotic sub-MIC effect at 0.2 times MIC concentration pretreated with 10 times MIC concentration for 1 hr followed by 1:1000 dilution by viable plate count method
Escherichia coli [4] = assay: Antibacterial activity against Escherichia coli assessed as post-antibiotic sub-MIC effect at 0.2 times MIC concentration pretreated with 6 times MIC concentration for 1 hr followed by 1:1000 dilution by viable plate count method
Staphylococcus aureus [5] = assay: Antibacterial activity against vancomycin-intermediate methicillin-resistant Staphylococcus aureus assessed as sub-MIC effect at 0.3 times MIC concentration incubated for 1 hr by viable plate count method
Enterococcus faecalis [6] = assay: Antibacterial activity against vancomycin-sensitive Enterococcus faecalis assessed as sub-MIC effect at 0.3 times MIC concentration incubated for 1 hr by viable plate count method
Escherichia coli [7] = assay: Antibacterial activity against Escherichia coli assessed as sub-MIC effect at 0.3 times MIC concentration incubated for 1 hr by viable plate count method
Klebsiella pneumoniae [8] = assay: Antibacterial activity against Klebsiella pneumoniae assessed as sub-MIC effect at 0.3 times MIC concentration incubated for 1 hr by viable plate count method
Staphylococcus aureus [9] = assay: Antibacterial activity against vancomycin-sensitive methicillin-resistant Staphylococcus aureus assessed as post-antibiotic sub-MIC effect at 0.3 times MIC concentration pretreated with 6 times MIC concentration for 1 hr followed by 1:1000 dilution by viable plate count method
Klebsiella pneumoniae [10] = assay: Antibacterial activity against Klebsiella pneumoniae assessed as post-antibiotic sub-MIC effect at 0.3 times MIC concentration pretreated with 10 times MIC concentration for 1 hr followed by 1:1000 dilution by viable plate count method
Enterobacter cloacae [11] = assay: Antibacterial activity against Enterobacter cloacae assessed as post-antibiotic sub-MIC effect at 0.3 times MIC concentration pretreated with 10 times MIC concentration for 1 hr followed by 1:1000 dilution by viable plate count method
Enterococcus faecalis [12] = assay: Antibacterial activity against vancomycin-sensitive Enterococcus faecalis assessed as sub-MIC effect at 0.4 times MIC concentration incubated for 1 hr by viable plate count method
Enterobacter cloacae [13] = assay: Antibacterial activity against Enterobacter cloacae assessed as sub-MIC effect at 0.4 times MIC concentration incubated for 1 hr by viable plate count method
Acinetobacter baumannii [14] = assay: Antibacterial activity against Acinetobacter baumannii assessed as sub-MIC effect at 0.4 times MIC concentration incubated for 1 hr by viable plate count method
Streptococcus pneumoniae [15] = assay: Antibacterial activity against penicillin-resistant Streptococcus pneumoniae assessed as post-antibiotic sub-MIC effect at 0.4 times MIC concentration pretreated with 10 times MIC concentration for 1 hr followed by 1:1000 dilution by viable plate count method
Staphylococcus aureus [16] = assay: Antibacterial activity against vancomycin-intermediate methicillin-resistant Staphylococcus aureus assessed as post-antibiotic sub-MIC effect at 0.4 times MIC concentration pretreated with 10 times MIC concentration for 1 hr followed by 1:1000 dilution by viable plate count method
Staphylococcus aureus [17] = assay: Antibacterial activity against vancomycin-intermediate methicillin-resistant Staphylococcus aureus assessed as post-antibiotic sub-MIC effect at 0.4 times MIC concentration pretreated with 6 times MIC concentration for 1 hr followed by 1:1000 dilution by viable plate count method
Enterococcus faecalis [18] = assay: Antibacterial activity against vancomycin-resistant Enterococcus faecalis assessed as post-antibiotic sub-MIC effect at 0.4 times MIC concentration pretreated with 10 times MIC concentration for 1 hr followed by 1:1000 dilution by viable plate count method
Staphylococcus aureus [19] = assay: Antibacterial activity against vancomycin-intermediate methicillin-resistant Staphylococcus aureus assessed as post-antibiotic sub-MIC effect at 0.3 times MIC concentration pretreated with 6 times MIC concentration for 1 hr followed by 1:1000 dilution by viable plate count method
Enterobacter cloacae [20] = assay: Antibacterial activity against Enterobacter cloacae assessed as sub-MIC effect at 0.2 times MIC concentration incubated for 1 hr by viable plate count method
Staphylococcus aureus [21] = assay: Antibacterial activity against vancomycin-sensitive methicillin-resistant Staphylococcus aureus assessed as sub-MIC effect at 0.2 times MIC concentration incubated for 1 hr by viable plate count method
Acinetobacter baumannii [22] = assay: Antibacterial activity against multidrug-resistant Acinetobacter baumannii producing OXA-24 and OXA-51 beta-lactamases assessed as post antibiotic effect at 2 times MIC concentration incubated for 1 hr measured after 1:1000 dilution by viable plate count method
Enterobacter cloacae [23] = assay: Antibacterial activity against Enterobacter cloacae assessed as post antibiotic effect at 10 times MIC concentration incubated for 1 hr measured after 1:1000 dilution by viable plate count method
Klebsiella pneumoniae [24] = assay: Antibacterial activity against Klebsiella pneumoniae assessed as post antibiotic effect at 10 times MIC concentration incubated for 1 hr measured after 1:1000 dilution by viable plate count method
Enterococcus faecalis [25] = assay: Antibacterial activity against vancomycin-sensitive Enterococcus faecalis assessed as post antibiotic effect at 10 times MIC concentration incubated for 1 hr measured after 1:1000 dilution by viable plate count method
Staphylococcus aureus [26] = assay: Antibacterial activity against vancomycin-sensitive methicillin-resistant Staphylococcus aureus assessed as post antibiotic effect at 6 times MIC concentration incubated for 1 hr measured after 1:1000 dilution by viable plate count method
Streptococcus pneumoniae [27] = assay: Antibacterial activity against penicillin-susceptible Streptococcus pneumoniae assessed as post antibiotic effect at 10 times MIC concentration incubated for 1 hr measured after 1:1000 dilution by viable plate count method
Acinetobacter baumannii [28] = assay: Antibacterial activity against multidrug-resistant Acinetobacter baumannii producing OXA-24 and OXA-51 beta-lactamases by macrodilution method
Klebsiella pneumoniae [29] = assay: Antibacterial activity against Klebsiella pneumoniae by macrodilution method
Enterococcus faecalis [30] = assay: Antibacterial activity against vancomycin-resistant Enterococcus faecalis by macrodilution method
Klebsiella pneumoniae [31] = assay: Antibacterial activity against Klebsiella pneumoniae assessed as post-antibiotic sub-MIC effect at 0.4 times MIC concentration pretreated with 10 times MIC concentration for 1 hr followed by 1:1000 dilution by viable plate count method
Enterobacter cloacae [32] = assay: Antibacterial activity against Enterobacter cloacae assessed as post-antibiotic sub-MIC effect at 0.4 times MIC concentration pretreated with 10 times MIC concentration for 1 hr followed by 1:1000 dilution by viable plate count method
Klebsiella pneumoniae [33] = assay: Antibacterial activity against Klebsiella pneumoniae assessed as post antibiotic effect
Escherichia coli [34] = assay: Antibacterial activity against Escherichia coli assessed as post-antibiotic sub-MIC effect at 0.4 times MIC concentration pretreated with 10 times MIC concentration for 1 hr followed by 1:1000 dilution by viable plate count method

Compound: CN(C)c1cc(NC(=O)CNC(C)(C)C)c(O)c2c1C[C@H]1C[C@H]3[C@H](N(C)C)C(O)=C(C(N)=O)C(=O)[C@@]3(O)C(O)=C1C2=O [TIGECYCLINE]
- MIC (Streptococcus pneumoniae [1]): 0.06 µg/mL (≈ 0.102 µM)
- PAE (Enterococcus faecalis [2]): 7.6 h
- PAE (Haemophilus influenzae): 3.9 h
- PAE (Escherichia coli [3]): 2.4 h
- PAE (Escherichia coli [4]): 1.9 h
- PAE (Staphylococcus aureus [5]): 2.9 h
- PAE (Enterococcus faecalis [6]): 0.2 h
- PAE (Escherichia coli [7]): 0 h
- PAE (Klebsiella pneumoniae [8]): 0.4 h
- PAE (Staphylococcus aureus [9]): 4.9 h
- PAE (Klebsiella pneumoniae [10]): 2 h
- PAE (Enterobacter cloacae [11]): 5 h
- PAE (Enterococcus faecalis [12]): 1.8 h
- PAE (Enterobacter cloacae [13]): 2.7 h
- PAE (Acinetobacter baumannii [14]): 11.2 h
- PAE (Streptococcus pneumoniae [15]): 10.2 h
- PAE (Staphylococcus aureus [16]): 10 h
- PAE (Staphylococcus aureus [17]): 10 h
- PAE (Enterococcus faecalis [18]): 11 h
- PAE (Staphylococcus aureus [19]): 9.8 h
- PAE (Enterobacter cloacae [20]): 0.2 h
- PAE (Staphylococcus aureus [21]): 0.2 h
- PAE (Acinetobacter baumannii [22]): 0.7 h
- PAE (Enterobacter cloacae [23]): 1.2 h
- PAE (Klebsiella pneumoniae [24]): 1.7 h
- PAE (Enterococcus faecalis [25]): 3.9 h
- PAE (Staphylococcus aureus [26]): 2.9 h
- PAE (Streptococcus pneumoniae [27]): 3.7 h
- MIC (Acinetobacter baumannii [28]): 2 µg/mL (≈ 3.41 µM)
- MIC (Klebsiella pneumoniae [29]): 0.25 µg/mL (≈ 0.427 µM)
- MIC (Enterococcus faecalis [30]): 0.06 µg/mL (≈ 0.102 µM)
- PAE (Klebsiella pneumoniae [31]): 2.3 h
- PAE (Enterobacter cloacae [32]): 7.2 h
- PAE (Klebsiella pneumoniae [33]): 2 h
- PAE (Escherichia coli [34]): 3.5 h
